Assay results taken from ChEMBL document CHEMBL2010711, “Synthesis and comparative evaluation of 4-oxa- and 4-aza-podophyllotoxins as antiproliferative microtubule destabilizing agents” (Bioorg Med Chem Lett, 2012).
Active and inactive are the calls of the source.

Tests used:
[1] = test system: Paracentrotus lividus; test: Antimitotic activity against Paracentrotus lividus embryo assessed as concentration required to cause 100% cleavage alteration after 2.5 to 6 hrs; format: functional
[2] = test system: Paracentrotus lividus; test: Microtubule destabilizing activity in Paracentrotus lividus embryo assessed as concentration required to cause 100% embryo spinning after 15 mins to 20 hrs; format: functional
[3] = test system: Paracentrotus lividus; test: Antimitotic activity against Paracentrotus lividus embryo assessed as concentration required to cause 100% cleavage arrest after 2.5 to 6 hrs; format: functional
[4] = test system: Paracentrotus lividus; test: Microtubule destabilizing activity in Paracentrotus lividus embryo assessed as embryo spinning at 2 fold less effective threshold concentration after 15 mins to 20 hrs; format: functional, organism-based
[5] = test system: Paracentrotus lividus; test: Antimitotic activity against Paracentrotus lividus embryo assessed as cleavage alteration at 2 fold less effective threshold concentration after 2.5 to 6 hrs; format: functional, organism-based
[6] = test system: Paracentrotus lividus; test: Antimitotic activity against Paracentrotus lividus embryo assessed as cleavage arrest at 2 fold less effective threshold concentration after 2.5 to 6 hrs; format: functional, organism-based
[7] = test system: OVCAR-4; test: Cytotoxicity against human OVCAR4 cells after 48 hrs by trypan blue dye exclusion assay; format: functional; conditions: OVCAR-4, 48 h
[8] = test system: RXF 393; test: Cytotoxicity against human RXF393 cells after 48 hrs by trypan blue dye exclusion assay; format: functional; conditions: RXF 393, 48 h
[9] = test system: SK-MEL-5; test: Cytotoxicity against human SK-MEL-5 cells after 48 hrs by trypan blue dye exclusion assay; format: functional; conditions: SK-MEL-5, 48 h
[10] = test system: NCI-H23; test: Cytotoxicity against human NCI-H23 cells after 48 hrs by trypan blue dye exclusion assay; format: functional; conditions: NCI-H23, 48 h
[11] = test system: MDA-MB-231; test: Cytotoxicity against human MDA-MB-231 cells after 48 hrs by trypan blue dye exclusion assay; format: functional; conditions: MDA-MB-231, 48 h
[12] = test system: MDA-MB-435; test: Cytotoxicity against human MDA-MB-435 cells after 48 hrs by trypan blue dye exclusion assay; format: functional; conditions: MDA-MB-435, 48 h
[13] = test system: DU-145; test: Cytotoxicity against human DU145 cells after 48 hrs by trypan blue dye exclusion assay; format: functional; conditions: DU-145, 48 h
[14] = test system: MCF7; test: Cytotoxicity against human MCF7 cells after 48 hrs by trypan blue dye exclusion assay; format: functional; conditions: MCF7, 48 h
[15] = test system: BT-549; test: Cytotoxicity against human BT549 cells after 48 hrs by trypan blue dye exclusion assay; format: functional; conditions: BT-549, 48 h
[16] = test system: M14; test: Cytotoxicity against human M14 cells after 48 hrs by trypan blue dye exclusion assay; format: functional; conditions: M14, 48 h
[17] = test system: NCI-H522; test: Cytotoxicity against human NCI-H522 cells after 48 hrs by trypan blue dye exclusion assay; format: functional; conditions: NCI-H522, 48 h
[18] = test system: EKVX; test: Cytotoxicity against human EKVX cells after 48 hrs by trypan blue dye exclusion assay; format: functional
[19] = test system: SNB-19; test: Cytotoxicity against human SNB19 cells after 48 hrs by trypan blue dye exclusion assay; format: functional; conditions: SNB-19, 48 h
[20] = test system: PC-3; test: Cytotoxicity against human PC3 cells after 48 hrs by trypan blue dye exclusion assay; format: functional; conditions: PC-3, 48 h
[21] = test system: HCC 2998; test: Cytotoxicity against human HCC2998 cells after 48 hrs by trypan blue dye exclusion assay; format: functional; conditions: HCC 2998, 48 h
[22] = test system: HCT-116; test: Cytotoxicity against human HCT116 cells after 48 hrs by trypan blue dye exclusion assay; format: functional; conditions: HCT-116, 48 h
[23] = test system: SK-MEL-28; test: Cytotoxicity against human SK-MEL-28 cells after 48 hrs by trypan blue dye exclusion assay; format: functional; conditions: SK-MEL-28, 48 h
[24] = test system: SK-MEL-2; test: Cytotoxicity against human SK-MEL-2 cells after 48 hrs by trypan blue dye exclusion assay; format: functional; conditions: SK-MEL-2, 48 h
[25] = test system: UO-31; test: Cytotoxicity against human UO31 cells after 48 hrs by trypan blue dye exclusion assay; format: functional; conditions: UO-31, 48 h
[26] = test system: NCI-H322M; test: Cytotoxicity against human NCI-H322M cells after 48 hrs by trypan blue dye exclusion assay; format: functional
[27] = test system: KM12; test: Cytotoxicity against human KM12 cells after 48 hrs by trypan blue dye exclusion assay; format: functional; conditions: KM12, 48 h
[28] = test system: RPMI-8226; test: Cytotoxicity against human RPMI8226 cells after 48 hrs by trypan blue dye exclusion assay; format: functional; conditions: RPMI-8226, 48 h
[29] = test system: SF-268; test: Cytotoxicity against human SF268 cells after 48 hrs by trypan blue dye exclusion assay; format: functional; conditions: SF-268, 48 h
[30] = test system: COLO 205; test: Cytotoxicity against human COLO205 cells after 48 hrs by trypan blue dye exclusion assay; format: functional; conditions: COLO 205, 48 h
[31] = test system: HT-29; test: Cytotoxicity against human HT-29 cells after 48 hrs by trypan blue dye exclusion assay; format: functional; conditions: HT-29, 48 h
[32] = test system: HL-60(TB); test: Cytotoxicity against human HL-60(TB) cells after 48 hrs by trypan blue dye exclusion assay; format: functional; conditions: HL-60, 48 h
[33] = test system: SK-OV-3; test: Cytotoxicity against human SKOV3 cells after 48 hrs by trypan blue dye exclusion assay; format: functional; conditions: SK-OV-3, 48 h
[34] = test system: A549; test: Cytotoxicity against human A549 cells after 48 hrs by trypan blue dye exclusion assay; format: functional; conditions: A549, 48 h
[35] = test system: NCI/ADR-RES; test: Cytotoxicity against human NCI/ADR-RES cells after 48 hrs by trypan blue dye exclusion assay; format: functional
[36] = test system: OVCAR-8; test: Cytotoxicity against human OVCAR8 cells after 48 hrs by trypan blue dye exclusion assay; format: functional; conditions: OVCAR-8, 48 h
[37] = test system: IGROV-1; test: Cytotoxicity against human IGROV1 cells after 48 hrs by trypan blue dye exclusion assay; format: functional; conditions: IGROV-1, 48 h
[38] = test system: SR; test: Cytotoxicity against human SR cells after 48 hrs by trypan blue dye exclusion assay; format: functional
[39] = test system: U-251; test: Cytotoxicity against human U251 cells after 48 hrs by trypan blue dye exclusion assay; format: functional; conditions: U-251, 48 h
[40] = test system: CCRF-CEM; test: Cytotoxicity against human CCRF-CEM cells after 48 hrs by trypan blue dye exclusion assay; format: functional
[41] = test system: TK-10; test: Cytotoxicity against human TK10 cells after 48 hrs by trypan blue dye exclusion assay; format: functional; conditions: TK-10, 48 h
[42] = Cytotoxicity against human Hs 578T cells after 48 hrs by trypan blue dye exclusion assay; format: functional
[43] = test system: MOLT-4; test: Cytotoxicity against human MOLT4 cells after 48 hrs by trypan blue dye exclusion assay; format: functional; conditions: MOLT-4, 48 h
[44] = test system: ACHN; test: Cytotoxicity against human ACHN cells after 48 hrs by trypan blue dye exclusion assay; format: functional
[45] = test system: MDA-MB-468; test: Cytotoxicity against human MDA-MB-468 cells after 48 hrs by trypan blue dye exclusion assay; format: functional; conditions: MDA-MB-468, 48 h
[46] = test system: SN12C; test: Cytotoxicity against human SN12C cells after 48 hrs by trypan blue dye exclusion assay; format: functional
[47] = test system: LOX IMVI; test: Cytotoxicity against human LOXIMVI cells after 48 hrs by trypan blue dye exclusion assay; format: functional
[48] = test system: HCT-15; test: Cytotoxicity against human HCT15 cells after 48 hrs by trypan blue dye exclusion assay; format: functional; conditions: HCT-15, 48 h
[49] = test system: HOP-92; test: Cytotoxicity against human HOP92 cells after 48 hrs by trypan blue dye exclusion assay; format: functional; conditions: HOP-92, 48 h
[50] = test system: CAKI-1; test: Cytotoxicity against human CAKI-1 cells after 48 hrs by trypan blue dye exclusion assay; format: functional; conditions: CAKI-1, 48 h
[51] = test system: NCI-H460; test: Cytotoxicity against human NCI-H460 cells after 48 hrs by trypan blue dye exclusion assay; format: functional; conditions: NCI-H460, 48 h
[52] = test system: NCI-H226; test: Cytotoxicity against human NCI-H226 cells after 48 hrs by trypan blue dye exclusion assay; format: functional; conditions: NCI-H226, 48 h
[53] = test system: SF-539; test: Cytotoxicity against human SF539 cells after 48 hrs by trypan blue dye exclusion assay; format: functional; conditions: SF-539, 48 h
[54] = test system: SNB-75; test: Cytotoxicity against human SNB75 cells after 48 hrs by trypan blue dye exclusion assay; format: functional; conditions: SNB-75, 48 h
[55] = test system: OVCAR-3; test: Cytotoxicity against human OVCAR3 cells after 48 hrs by trypan blue dye exclusion assay; format: functional; conditions: OVCAR-3, 48 h
[56] = test system: SF-295; test: Cytotoxicity against human SF295 cells after 48 hrs by trypan blue dye exclusion assay; format: functional; conditions: SF-295, 48 h
[57] = test system: SW-620; test: Cytotoxicity against human SW620 cells after 48 hrs by trypan blue dye exclusion assay; format: functional; conditions: SW-620, 48 h
[58] = test system: UACC-62; test: Cytotoxicity against human UACC62 cells after 48 hrs by trypan blue dye exclusion assay; format: functional; conditions: UACC-62, 48 h
[59] = test system: 786-0; test: Cytotoxicity against human 786-0 cells after 48 hrs by trypan blue dye exclusion assay; format: functional; conditions: 786-0, 48 h
[60] = test system: OVCAR-5; test: Cytotoxicity against human OVCAR5 cells after 48 hrs by trypan blue dye exclusion assay; format: functional; conditions: OVCAR-5, 48 h
[61] = test system: A498; test: Cytotoxicity against human A498 cells after 48 hrs by trypan blue dye exclusion assay; format: functional; conditions: A498, 48 h

COc1cc(OC)cc(C2C3=C(COC3=O)Oc3cc(OC)ccc32)c1 (centres undefined)
EC [1]: 1 nM
EC [2]: 50 nM
EC [3]: 5 nM
Activity [4]: inactive
Activity [5]: inactive
Activity [6]: inactive

COc1ccc2c(c1)OC1=C(C(=O)OC1)C2c1cc(OC)c2c(c1)OCCO2 (centres undefined)
GI50 [7]: 236 nM
GI50 [8]: 18.7 nM
GI50 [9]: 32.9 nM
GI50 [10]: 38.2 nM
GI50 [11]: 110 nM
GI50 [12]: 19.7 nM
GI50 [13]: 51.9 nM
GI50 [14]: 32.9 nM
GI50 [15]: 131 nM
GI50 [16]: 52.2 nM
GI50 [17]: 37.3 nM
GI50 [18]: 68.2 nM
GI50 [19]: 50.4 nM
GI50 [20]: 46.9 nM
GI50 [21]: 75.7 nM
GI50 [22]: 48.3 nM
GI50 [23]: 51.7 nM
GI50 [24]: 48.3 nM
GI50 [25]: 71.3 nM
GI50 [26]: 47.4 nM
EC [1]: 10 nM
GI50 [27]: 42.7 nM
EC [2]: 500 nM
GI50 [28]: 41 nM
EC [3]: 50 nM
GI50 [29]: 85.1 nM
GI50 [30]: 30.7 nM
GI50 [31]: 38.4 nM
GI50 [32]: 23.2 nM
GI50 [33]: 33.3 nM
GI50 [34]: 52.3 nM
GI50 [35]: 23.5 nM
GI50 [36]: 49.5 nM
GI50 [37]: 86 nM
GI50 [38]: 32.8 nM
GI50 [39]: 85.1 nM
Activity [4]: inactive
GI50 [40]: 31.3 nM
GI50 [41]: 36500 nM
GI50 [42]: 30.8 nM
GI50 [43]: 81.7 nM
GI50 [44]: 171 nM
GI50 [45]: 23.1 nM
GI50 [46]: 54 nM
GI50 [47]: 48.5 nM
GI50 [48]: 47.5 nM
GI50 [49]: 41.6 nM
GI50 [50]: 36.3 nM
GI50 [51]: > 100000 nM
Activity [5]: inactive
Activity [6]: inactive
GI50 [52]: 71.2 nM
GI50 [53]: 29.3 nM
GI50 [54]: 33.7 nM
GI50 [55]: 26.2 nM
GI50 [56]: 31.5 nM
GI50 [57]: 36.2 nM
GI50 [58]: 39.2 nM
GI50 [59]: 61.4 nM
GI50 [60]: 126 nM
GI50 [61]: 23.1 nM

COc1ccc2c(c1)C(c1cc(OC)c(OC)c(OC)c1)C1=C(COC1=O)O2 (centres undefined)
EC [1]: 100 nM
EC [2]: 5000 nM
EC [3]: 2000 nM
Activity [4]: inactive
Activity [5]: inactive
Activity [6]: inactive

COc1cc2c(c(OC)c1OC)C(c1ccccc1)C1=C(COC1=O)O2 (centres undefined)
EC [1]: 2000 nM
EC [2]: >4000 nM
EC [3]: >4000 nM
Activity [4]: inactive
Activity [5]: inactive
Activity [6]: inactive
